How the values were obtained:
human 5-HT1A receptor = biological target: T1, human 5-HT1A receptor (Homo sapiens, UniProt P08908); assay: Affinity measurement of the compounds to human 5-HT1A receptor (in vitro), [3H]8-OH-DPAT binding; conditions: test compound 100 nmols/L; [3H]8-OH-DPAT 0.25 nmols/L; CHO cell membrane expressing human 5-HT1A receptor; read-out: Percent Inhibition (%) on Each Receptor's Binding at 10^−7M, 5-HT1A
T1 construct: purchased Packard Bioscience; host or cells: CHO cells (membrane preparation)
T1 sequence (P08908 1-422): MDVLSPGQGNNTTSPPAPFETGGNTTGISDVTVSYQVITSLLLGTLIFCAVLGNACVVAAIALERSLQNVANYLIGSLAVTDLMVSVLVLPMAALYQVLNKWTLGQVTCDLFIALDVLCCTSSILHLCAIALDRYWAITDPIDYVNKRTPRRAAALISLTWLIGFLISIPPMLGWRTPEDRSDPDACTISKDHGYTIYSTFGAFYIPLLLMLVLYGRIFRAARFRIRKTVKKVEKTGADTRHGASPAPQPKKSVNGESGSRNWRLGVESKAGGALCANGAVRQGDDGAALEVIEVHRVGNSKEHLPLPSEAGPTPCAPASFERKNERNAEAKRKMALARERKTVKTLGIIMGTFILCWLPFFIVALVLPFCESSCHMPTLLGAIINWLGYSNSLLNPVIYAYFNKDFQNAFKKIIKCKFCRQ
Method in brief: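 Membranes from CHO cells expressing human 5-HT1A were incubated 60 min at 27 °C with 0.25 nmol/L [3H]8-OH-DPAT and compound in Tris/MgSO4/EDTA/ascorbate buffer, pH 7.4. Bound radioactivity was collected on PEI-soaked GF/C filters and counted; percent inhibition was corrected for non-specific binding defined with 10 μmol/L 8-OH-DPAT.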

human 5-HT3 receptor = biological target: T2, human 5-HT3 receptor (Homo sapiens, UniProt P46098); assay: Measurement of affinity to human 5-HT3 receptor (in vitro), [3H]BRL-43694 binding; conditions: test compound 100 nmols/L; [3H]BRL-43694 0.5 nmols/L; HEK-293 cell membrane expressing human 5-HT3 receptor; read-out: Percent Inhibition (%) on Each Receptor's Binding at 10^−7M, 5-HT3
T2 construct: purchased BIOLINKS K.K; host or cells: HEK-293 cells (membrane preparation)
T2 sequence (P46098 24-478): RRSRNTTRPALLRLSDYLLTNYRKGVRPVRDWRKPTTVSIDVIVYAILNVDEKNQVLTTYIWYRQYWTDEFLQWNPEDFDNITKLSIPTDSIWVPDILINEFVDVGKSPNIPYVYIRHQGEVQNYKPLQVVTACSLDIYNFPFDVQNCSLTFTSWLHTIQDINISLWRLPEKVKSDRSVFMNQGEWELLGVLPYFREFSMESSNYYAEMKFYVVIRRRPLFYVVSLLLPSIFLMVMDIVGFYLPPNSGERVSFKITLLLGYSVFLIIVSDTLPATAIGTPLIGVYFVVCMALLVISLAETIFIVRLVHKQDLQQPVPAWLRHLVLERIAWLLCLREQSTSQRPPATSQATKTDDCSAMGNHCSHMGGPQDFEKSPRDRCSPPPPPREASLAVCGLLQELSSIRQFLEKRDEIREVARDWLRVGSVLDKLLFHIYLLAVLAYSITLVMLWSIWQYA
Method in brief: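 Membranes from HEK-293 cells expressing the receptor were incubated with 0.5 nmol/L radioligand and compound for 60 min at 25 °C in Tris/MgCl2/EDTA buffer, pH 7.5. Bound radioactivity was collected by filtration and counted. Percent inhibition was corrected for non-specific binding defined with 10 μmol/L tropisetron; compounds were tested at 100 nmol/L.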

`O=c1[nH]c(CCCCN2CCN(c3ccccn3)CC2)nc2sc3c(c12)CCCC3` [Example 3-10, 2-[4-(4-pyridin-2-ylpiperazin-1-yl)butyl]-5,6,7,8-tetrahydro-3H-benzo[4,5]thieno[2,3-d]pyrimidin-4-one] showed a melting point of 192.6 to 194.4 °C.
`Cc1sc2nc(SCCCN3CCN(c4ccccn4)CC3)n(N)c(=O)c2c1C` [Example 1-2, 3-amino-5,6-dimethyl-2-[3-(4-pyridin-2-ylpiperazin-1-yl)propylthio]-3H-thieno[2,3-d]pyrimidin-4-one] gave a melting point of 183.1 to 184.8 °C.
Work on `Cc1sc2nc(SCCCN3CCN(c4ccc5ccccc5n4)CC3)[nH]c(=O)c2c1C` [Example 2-4, 5,6-dimethyl-2-[3-(4-quinolin-2-yl-piperazin-1-yl)propylthio]-3H-thieno[2,3-d]pyrimidin-4-one] yielded a melting point of 224.8 to 225.9 °C.
Molecule `Cc1sc2nc(SCCCN3CCN(c4ccccn4)CC3)[nH]c(=O)c2c1C` [Example 2-1, 5,6-dimethyl-2-[3-(4-pyridin-2-ylpiperazin-1-yl)propylthio]-3H-thieno[2,3-d]-pyrimidin-4-one] has an inhibition at 0.1 µM (human 5-HT1A receptor) of 60.8%, an inhibition at 0.1 µM (human 5-HT3 receptor) of 52.6% and a melting point of 209 to 209.4 °C.
For `CCOC(=O)c1sc2nc(SCCCN3CCN(c4ccc5ccccc5n4)CC3)[nH]c(=O)c2c1C` [Example 2-6, 5-methyl-4-oxo-2-[3-(4-quinolin-2-ylpiperazin-1-yl)propylthio]-3,4-dihydrothieno[2,3-d]pyrimidine-6-carboxylic acid ethyl ester], the melting point was 200.1 to 201.4 °C.
In the case of `Cc1sc2nc(SCCCN3CCN(c4nc5ccccc5s4)CC3)n(N)c(=O)c2c1C` [Example 1-6, 3-amino-2-[3-(4-benzothiazol-2-ylpiperazin-1-yl)propylthio]-5,6-dimethyl-3H-thieno[2,3-d]pyrimidin-4-one], the melting point is reported as 200.5 to 201.2 °C.

From US7799775B2, “Pyrimidine derivatives” (ASKA Pharmaceutical Co., Ltd., priority 2004, dated 2010)
